In ChEMBL document CHEMBL3045062, “Potent in vitro and in vivo antitubercular activity of certain newly synthesized indophenazine 1,3,5-trisubstituted pyrazoline derivatives bearing benzofuran” (Med Chem Res, 2011):
Converted amounts (≈) assume the structure as drawn.

System: Mycobacterium tuberculosis
Experiment: Antitubercular activity against Isoniazid,rifampicin,gatifloxacin-resistant Mycobacterium tuberculosis after 60 days
Assay type: functional

| SMILES | MIC50 | MIC90 |
| --- | --- | --- |
| O=C(Cn1c2ccccc2c2nc3ccccc3nc21)N1N=C(c2cc3cc(O)ccc3o2)CC1c1ccccc1O (stereo not given) | 10.3 µg/mL (≈ 18.7 µM) | 12.6 µg/mL (≈ 22.7 µM) |
| COc1ccccc1C1CC(c2cc3cc(O)ccc3o2)=NN1C(=O)Cn1c2ccccc2c2nc3ccccc3nc21 (stereo not given) | 10.7 µg/mL (≈ 18.8 µM) | 13.6 µg/mL (≈ 24 µM) |
| CN(C)c1ccc(C2CC(c3cc4cc(O)ccc4o3)=NN2C(=O)Cn2c3ccccc3c3nc4ccccc4nc32)cc1 (stereo not given) | 5 µg/mL (≈ 8.61 µM) | 8.98 µg/mL (≈ 15.5 µM) |
| CC(=O)c1ccccc1C1CC(c2cc3cc(O)ccc3o2)=NN1C(=O)Cn1c2ccccc2c2nc3ccccc3nc21 (stereo not given) | 9.56 µg/mL (≈ 16.5 µM) | 7.45 µg/mL (≈ 12.9 µM) |
| O=C(Cn1c2ccccc2c2nc3ccccc3nc21)N1N=C(c2cc3cc(O)ccc3o2)CC1c1cccc([N+](=O)[O-])c1 (stereo not given) | 1.2 µg/mL (≈ 2.06 µM) | 2 µg/mL (≈ 3.43 µM) |
| COc1ccc(C2CC(c3cc4cc(O)ccc4o3)=NN2C(=O)Cn2c3ccccc3c3nc4ccccc4nc32)c(O)c1 (stereo not given) | 7.8 µg/mL (≈ 13.4 µM) | 13.1 µg/mL (≈ 22.4 µM) |
| O=C(Cn1c2ccccc2c2nc3ccccc3nc21)N1N=C(c2cc3cc(O)ccc3o2)CC1c1ccc(O)cc1 (stereo not given) | 9.86 µg/mL (≈ 17.8 µM) | 11.2 µg/mL (≈ 20.3 µM) |
| O=C(Cn1c2ccccc2c2nc3ccccc3nc21)N1N=C(c2cc3cc(O)ccc3o2)CC1c1ccc(Cl)cc1 (stereo not given) | 5.23 µg/mL (≈ 9.14 µM) | 8.66 µg/mL (≈ 15.1 µM) |
| O=C(Cn1c2ccccc2c2nc3ccccc3nc21)N1N=C(c2cc3cc(O)ccc3o2)CC1c1ccccc1Cl (stereo not given) | 4.68 µg/mL (≈ 8.18 µM) | 8.61 µg/mL (≈ 15.1 µM) |
| O=C(Cn1c2ccccc2c2nc3ccccc3nc21)N1N=C(c2cc3cc(O)ccc3o2)CC1c1ccccc1[N+](=O)[O-] (stereo not given) | 3.24 µg/mL (≈ 5.56 µM) | 7.2 µg/mL (≈ 12.4 µM) |
| COc1ccc(C2CC(c3cc4cc(O)ccc4o3)=NN2C(=O)Cn2c3ccccc3c3nc4ccccc4nc32)cc1 (stereo not given) | 11.5 µg/mL (≈ 20.3 µM) | 15.4 µg/mL (≈ 27.1 µM) |
| O=C(Cn1c2ccccc2c2nc3ccccc3nc21)N1N=C(c2cc3cc(O)ccc3o2)CC1c1ccco1 (stereo not given) | 6.4 µg/mL (≈ 12.1 µM) | 9.78 µg/mL (≈ 18.5 µM) |
| O=C(Cn1c2ccccc2c2nc3ccccc3nc21)N1N=C(c2cc3cc(O)ccc3o2)CC1/C=C/c1ccccc1 (stereo not given) | 5.6 µg/mL (≈ 9.94 µM) | 11.3 µg/mL (≈ 20.1 µM) |
| COc1c(N2CCNC(C)C2)c(F)cc2c(=O)c(C(=O)O)cn(C3CC3)c12 (stereo not given) [GATIFLOXACIN] | 14.7 µg/mL (≈ 39.2 µM) | 28.5 µg/mL (≈ 75.8 µM) |
| CO[C@H]1/C=C/O[C@@]2(C)Oc3c(C)c(O)c4c(O)c(c(/C=N/N5CCN(C)CC5)c(O)c4c3C2=O)NC(=O)/C(C)=C\C=C\[C@H](C)[C@H](O)[C@@H](C)[C@@H](O)[C@@H](C)[C@H](OC(C)=O)[C@@H]1C [RIFAMPIN] | 4.21 µg/mL (≈ 5.12 µM) | 7.37 µg/mL (≈ 8.96 µM) |
